Test results from paper PMC9924185, “A validated LC–MS/MS method for clinical pharmacokinetics and presumptive phase II metabolic pathways following oral administration of Andrographis paniculata extract” (Scientific Reports, 2023).
Where two headings read alike, the source gives them in different places.

Experiments:
[1] = plasma
Protocol: (§4) The stability of plasma and urine samples were evaluated at three different QC concentration levels (LQC, MQC and HQC, n = 3 for each level); the conditions were freeze–thaw stability, long-term stability, short-term stability, and post preparative stability in an autosampler. The evaluation of stability under freeze–thaw condition was carried out over five cycles of − 80 °C for at least 12 h of each cycle. Long-term stability was analyzed after storing the samples at − 80 °C. Short-term stability of each analyte, for up to 8 h during processing on the bench at room temperature, was also evaluated. For evaluation of post-preparative stability, the extracted samples were stored at ambient temperature (4 °C) in an autosampler for 24 h. The analyte was considered as a stable sample when the average percentage of accuracy of the QC sample was in the range of 85–115% and the %CV was not over 15%.

[2] = Clinical pharmacokinetics in plasma after single oral administration of A. paniculata extract; format: in vivo, human
Protocol: (§1) An aliquot of 50 µL of plasma or urine was placed in a 1.5 mL of polypropylene centrifuge micro-tube. Protein was removed from the sample by adding 200 µL of methanol (containing 50.00 ng/mL of IS). The mixture was vortexed for 10 min and was then centrifuged at 12,000 rpm, 4 °C for 10 min. The supernatant was filtered through a […] PVDF membrane (Chrom Tech) and transferred into a glass insert in a vial before LC‑MS/MS analysis.
(§2) The clinical pharmacokinetic study was designed as an open-labeled, with a single oral dosing, and conducted under a fasting condition. Four healthy subjects were recruited according to the following inclusion criteria: 18—55 years old with a body mass index (BMI) of 18–30 kg/m^2. Study participants were identified as healthy based on laboratory testing and physical examinations. The participants received 3 capsules containing A. paniculata extract (calculated as 60 mg of andrographolide/dose) before breakfast with 240 mL of drinking water. Blood samples, in EDTA tubes, were taken after oral administration at 0, 10, 20, 30, 45 min, and 1, 1.5, 2, 4, 6, 8, 10, 12, 24 h post dose. All blood samples were then centrifuged at 4000 ± 100 rpm, 4 °C for 5 min. Plasma was pipetted and stored in cryotubes at − 80 °C until further analysis. Urine samples were collected during 0–4, 4–8, 8–12, 12–24, 24–32, 32–40 and 40–48 h after dosing and were then kept at − 80 °C before sample extraction.
Pharmacokinetic parameters were determined by non-compartmental analysis using PK solutions software, version 2.0 (Summit Research Services). The maximum concentration of four targeted compounds (Cmax) and the time to reach maximum concentration (Tmax) were taken directly from the individual plasma concentration versus time profiles. The area under the curve from time zero to the last sampling time (AUC0-t) was estimated using the linear trapezoidal rule. The apparent volume of distribution (Vd/F) and the elimination half-life (t1/2) were determined using non-compartmental analysis.
(§3) Finally, the hydrolysis of glucuronide metabolites in the pharmacokinetic study was performed according to the following process: 50 µL of plasma or urine sample was incubated for 30 min with 50 µL of 1000 U/mL β-glucuronidase in phosphate buffer pH 6.8 (composed of 0.1 M sodium phosphate monobasic and 0.1 M sodium phosphate dibasic) at 37 °C. For the hydrolysis of sulfatase, 50 µL of 100 units/mL of sulfatase in an acetate buffer at pH 5.0 (composed of 0.1 M acetic acid and 0.1 M sodium acetate) was added into 50 µL of sample; the mixture was then incubated at 37 °C for 2 h. The reaction was stopped in all hydrolysis samples with 150 µL of cold methanol, and then protein precipitation was performed prior to LC–MS/MS analysis. However, due to unavailable standard of the conjugated forms (AP-glucuronide and […]). The quantitative analysis of conjugated metabolites was determined after the hydrolysis reaction by enzymatic digestion, and the free form was analyzed without hydrolysis. The conjugated standards of AP-glucuronide or AP-sulfate should be synthesized for determining the exact amount of the glucuronide or sulfate.

[3] = Cumulative urine excretion after single oral administration of A. paniculata extract; format: in vivo, human
Protocol: as §1, §2, §3

[4] = Stability in urine under different storage conditions; format: physicochemical, human
Protocol: as §4

[5] = Freeze–thaw stability 5 cycles, 2.50 ng/mL (LQC)
[6] = Freeze–thaw stability 5 cycles, 500.00 ng/mL (MQC)
[7] = Freeze–thaw stability 5 cycles, 900.00 ng/mL (HQC)
[8] = Long term stability 3 months at − 80 °C, 2.50 ng/mL (LQC)
[9] = Long term stability 3 months at − 80 °C, 500.00 ng/mL (MQC)
[10] = Long term stability 3 months at − 80 °C, 900.00 ng/mL (HQC)
[11] = Post preparative stability 24 h at autosampler, 2.50 ng/mL (LQC)
[12] = Post preparative stability 24 h at autosampler, 500.00 ng/mL (MQC)
[13] = Post preparative stability 24 h at autosampler, 900.00 ng/mL (HQC)
[14] = Short term stability 8 h at room temperature, 2.50 ng/mL (LQC)
[15] = Short term stability 8 h at room temperature, 500.00 ng/mL (MQC)
[16] = Short term stability 8 h at room temperature, 900.00 ng/mL (HQC)
[17] = human, parent compound in plasma, n = 4, single oral dose of extract (60 mg andrographolide), mean ± SD
[18] = human, parent compound in plasma, n = 4, single oral dose of extract (60 mg andrographolide), median

With `C=C1CC[C@@H]2[C@](C)(CO[C@@H]3O[C@H](CO)[C@@H](O)[C@H](O)[C@H]3O)CCC[C@@]2(C)[C@@H]1CCC1=CCOC1=O` [AP4, neoandrographolide] the “%Accuracy” value [1, 5] was 99.77%, the Measured concentration [1, 5] was 2.49 ± 0.14 ng/mL and the “%Accuracy” value [1, 6] was 94.01%. The Measured concentration [1, 6] was 470.07 ± 13.89 ng/mL, the “%Accuracy” value [1, 7] was 100.73% and the Measured concentration [1, 7] was 906.60 ± 9.37 ng/mL. The “%Accuracy” value [1, 8] was 93.19%, the Measured concentration [1, 8] was 2.33 ± 0.12 ng/mL and the “%Accuracy” value [1, 9] was 94.65%. The Measured concentration [1, 9] was 473.25 ± 26.27 ng/mL, the “%Accuracy” value [1, 10] was 98.12% and the Measured concentration [1, 10] was 883.06 ± 16.19 ng/mL. For the same compound, the “%Accuracy” value [1, 11] was 102.61%, the Measured concentration [1, 11] was 2.57 ± 0.12 ng/mL and the “%Accuracy” value [1, 12] was 97.12%. For the same compound, the Measured concentration [1, 12] was 485.59 ± 17.11 ng/mL, the “%Accuracy” value [1, 13] was 98.43% and the Measured concentration [1, 13] was 885.84 ± 17.63 ng/mL. The “%Accuracy” value [1, 14] was 98.11%, the Measured concentration [1, 14] was 2.45 ± 0.19 ng/mL and the “%Accuracy” value [1, 15] was 94.85%. For the same compound, the Measured concentration [1, 15] was 474.29 ± 22.98 ng/mL, the “%Accuracy” value [1, 16] was 98.96% and the Measured concentration [1, 16] was 890.60 ± 51.25 ng/mL. It also gave a Cmax ([2]; human, parent compound in plasma, healthy subjects n = 4, single oral dose of extract (60 mg andrographolide), mean ± SD) of 22.4 ± 5.87 ng/mL, an AUC(0-t) [2, 17] of 44.1 ± 7.48 ng·h/mL and a Vd/F [2, 17] of 0.65 ± 0.13 L/kg. The Tmax [2, 18] was 90 min, the half-life [2, 18] was 13.2 min and the “Amount detected in plasma” value ([2]; parent compound, single oral dose of extract) was “only very small amounts”. The “Conjugated metabolites in plasma” value ([2]; single oral dose of extract) was “negligible”, the “Conjugated metabolites in the urine” value [3] was “negligible” and the Route of excretion [3] was “primarily excreted renally”. The “%Accuracy” value [4, 5] was 93.80%, the Measured concentration [4, 5] was 2.35 ± 0.08 ng/mL and the “%Accuracy” value [4, 6] was 92.94%. For the same compound, the Measured concentration [4, 6] was 464.68 ± 10.80 ng/mL, the “%Accuracy” value [4, 7] was 101.12% and the Measured concentration [4, 7] was 910.07 ± 23.86 ng/mL. For the same compound, the “%Accuracy” value [4, 8] was 93.48%, the Measured concentration [4, 8] was 2.34 ± 0.16 ng/mL and the “%Accuracy” value [4, 9] was 89.13%. The Measured concentration [4, 9] was 445.65 ± 10.92 ng/mL, the “%Accuracy” value [4, 10] was 94.77% and the Measured concentration [4, 10] was 852.94 ± 7.53 ng/mL. For the same compound, the “%Accuracy” value [4, 11] was 96.03%, the Measured concentration [4, 11] was 2.40 ± 0.15 ng/mL and the “%Accuracy” value [4, 12] was 89.94%. The Measured concentration [4, 12] was 449.68 ± 2.36 ng/mL, the “%Accuracy” value [4, 13] was 101.81% and the Measured concentration [4, 13] was 916.25 ± 29.10 ng/mL. The “%Accuracy” value [4, 14] was 97.15%, the Measured concentration [4, 14] was 2.43 ± 0.07 ng/mL and the Measured concentration [4, 15] was 461.15 ± 18.24 ng/mL. The “%Accuracy” value [4, 16] was 102.82% and the Measured concentration [4, 16] was 925.37 ± 32.74 ng/mL.
